This passage reports inhibition and IC50 results from patent publication US7473790B2 (Pfizer Inc., priority 2003, dated 2009).

T1 sequence (P26663 2420-3010): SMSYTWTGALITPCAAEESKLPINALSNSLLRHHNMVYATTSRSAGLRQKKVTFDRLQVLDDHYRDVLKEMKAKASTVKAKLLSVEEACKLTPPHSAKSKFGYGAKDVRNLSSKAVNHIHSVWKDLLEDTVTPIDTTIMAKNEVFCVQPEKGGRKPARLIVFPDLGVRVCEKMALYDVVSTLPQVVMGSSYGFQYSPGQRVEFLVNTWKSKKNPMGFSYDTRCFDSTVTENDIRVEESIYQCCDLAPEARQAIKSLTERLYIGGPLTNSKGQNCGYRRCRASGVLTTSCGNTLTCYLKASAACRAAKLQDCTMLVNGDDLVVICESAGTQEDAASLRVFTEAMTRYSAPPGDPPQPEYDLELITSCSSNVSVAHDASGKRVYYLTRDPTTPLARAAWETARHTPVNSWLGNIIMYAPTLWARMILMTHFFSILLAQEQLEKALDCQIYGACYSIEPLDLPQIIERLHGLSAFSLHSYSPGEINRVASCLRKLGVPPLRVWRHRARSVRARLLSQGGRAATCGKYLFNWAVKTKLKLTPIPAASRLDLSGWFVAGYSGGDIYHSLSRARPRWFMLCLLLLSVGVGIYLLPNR

One assay has as its target T1, HCV polymerase (Hepatitis C virus genotype 1b, UniProt P26663).
T1 construct: 2.5 pmoles (0.15 μg) HCV polymerase protein in a final volume of 75 μL
Briefly: HCV polymerase primer/template-directed transcription assay (32P-GTP incorporation, filter binding). The class given is biochemical. The settings on record: @ 50 uM compound; given where IC50 was impractical to calculate; read-out: percent inhibition. The gist of the method:
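IC50s come from triplicate cpm, refit with an enzyme-concentration (30 nM) correction when under 200 nM. Reactions ran 30 min at 30° C in Tris pH 7.2 with MgCl2, 1 μM GTP spiked with α-32P-GTP, biotin-dG12 primer and poly(rC)300 template, with 1% DMSO. Incorporated label was collected on DE filtermats and counted.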
In general, inhibition refers to the change of the read-out against control, counted positive when it falls. For the compound `Cc1cc(C)n2nc(CC3=C(O)CC(CCC(=O)NC4CCN(C(=O)OC(C)(C)C)CC4)(C4CCCC4)OC3=O)nc2n1` (stereo not shown) [B(109), 4-{3-[2-Cyclopentyl-5-(5,7-dimethyl-[1,2,4]triazolo[1,5-a]pyrimidin-2-ylmethyl)-4-hydroxy-6-oxo-3,6-dihydro-2H-pyran-2-yl]-propionylamino}-piperidine-1-carboxylic acid tert-butyl ester], the inhibition at 50 µM is 23%.

The assay is the same for the next values; noted with them: recombinant HCV polymerase; 30 minutes at 30° C.; concentration giving 50% inhibition of polymerase-directed transcription; read-out: IC50.
What is called IC50 is the concentration at which inhibition is half-maximal. On to `CCc1cc(CCC2(C3CCCC3)CC(O)=C(Cc3nc4nc(C)cc(C)n4n3)C(=O)O2)ccc1OC(C)C` (stereo not shown) [B(102), 6-Cyclopentyl-3-(5,7-dimethyl-[1,2,4]triazolo[1,5-a]pyrimidin-2-ylmethyl)-6-[2-(3-ethyl-4-isopropoxy-phenyl)-ethyl]-4-hydroxy-5,6-dihydro-pyran-2-one], for which the IC50 stood at 500 nM.

Consider `COc1ccc(CCC2(C3CCCC3)CC(O)=C(Cc3nc4nc(C)cc(C)n4n3)C(=O)O2)c(F)c1` (stereo not shown) [B(103), 6-Cyclopentyl-3-(5,7-dimethyl-[1,2,4]triazolo[1,5-a]pyrimidin-2-ylmethyl)-6-[2-(2-fluoro-4-methoxy-phenyl)-ethyl]-4-hydroxy-5,6-dihydro-pyran-2-one], for which the IC50 turned out to be 107 nM.

For `CCc1cc(CCC2(C3CCCC3)CC(O)=C(Cc3nc4nc(C)cc(C)n4n3)C(=O)O2)ccc1OCCO` (stereo not shown) [B(104), 6-Cyclopentyl-3-(5,7-dimethyl-[1,2,4]triazolo[1,5-a]pyrimidin-2-ylmethyl)-6-{2-[3-ethyl-4-(2-hydroxy-ethoxy)-phenyl]-ethyl}-4-hydroxy-5,6-dihydro-pyran-2-one], the IC50 was 3 nM.

Turning to `Cc1cc(C)n2nc(CC3=C(O)CC(CCc4ccc(O)c(F)c4)(C4CCCC4)OC3=O)nc2n1` (stereo not shown) [B(105), 6-Cyclopentyl-3-(5,7-dimethyl-[1,2,4]triazolo[1,5-a]pyrimidin-2-ylmethyl)-6-[2-(3-fluoro-4-hydroxy-phenyl)-ethyl]-4-hydroxy-5,6-dihydro-pyran-2-one], the IC50 was found to be 46 nM.

On to `COc1ccc(CCC2(C3CCCC3)CC(O)=C(Cc3nc4nc(C)cc(C)n4n3)C(=O)O2)cc1C1CC1` (stereo not shown) [B(107), 6-Cyclopentyl-6-[2-(3-cyclopropyl-4-methoxy-phenyl)-ethyl]-3-(5,7-dimethyl-[1,2,4]triazolo[1,5-a]pyrimidin-2-ylmethyl)-4-hydroxy-5,6-dihydro-pyran-2-one], for which the IC50 is 6 nM.

`CCc1cc(CCC2(C3CCCC3)CC(O)=C(Cc3nc[nH]c3C)C(=O)O2)ccc1O` (stereo not shown) [B(110), 6-Cyclopentyl-6-[2-(3-ethyl-4-hydroxy-phenyl)-ethyl]-4-hydroxy-3-(5-methyl-1H-imidazol-4-ylmethyl)-5,6-dihydro-pyran-2-one]: the IC50 amounted to 107 nM.

For `CCc1nc(CC2=C(O)CC(CCc3ccc(O)c(CC)c3)(C3CCCC3)OC2=O)c(C)[nH]1` (stereo not shown) [B(111), 6-Cyclopentyl-6-[2-(3-ethyl-4-hydroxy-phenyl)-ethyl]-3-(2-ethyl-5-methyl-1H-imidazol-4-ylmethyl)-4-hydroxy-5,6-dihydro-pyran-2-one], the half-inhibitory concentration (IC50) came out at 321 nM.

Regarding `Cc1cc(C)n2nc(CC3=C(O)CC(CCc4ccc([C@@H](C)O)cc4)(C4CCCC4)OC3=O)nc2n1` (stereo partly shown) [B(112), 6-Cyclopentyl-3-(5,7-dimethyl-[1,2,4]triazolo[1,5-a]pyrimidin-2-ylmethyl)-4-hydroxy-6-{2-[4-(1-hydroxy-ethyl)-phenyl]-ethyl}-5,6-dihydro-pyran-2-one], the IC50 came to 97 nM.

Regarding `CCc1cc(CCC2(C3CCCC3)CC(O)=C(Cc3nc4nc(C)cc(C)n4n3)C(=O)O2)ccc1Cl` (stereo not shown) [B(113), 6-[2-(4-Chloro-3-ethyl-phenyl)-ethyl]-6-cyclopentyl-3-(5,7-dimethyl-[1,2,4]triazolo[1,5-a]pyrimidin-2-ylmethyl)-4-hydroxy-5,6-dihydro-pyran-2-one], the concentration for half-maximal inhibition (IC50) worked out at 19 nM.

In the case of `C[C@@H](O)c1ccc(CCC2(C3CCCC3)CC(=O)CC(=O)O2)cc1F` (stereo partly shown) [B(115), 6-Cyclopentyl-6-{2-[3-fluoro-4-(1-hydroxy-ethyl)-phenyl]-ethyl}-dihydro-pyran-2,4-dione], the IC50 was 3300 nM.

Regarding `COc1ccc(CCC2(C3CCCC3)CC(O)=C(Cc3nc4nc(C)cc(C)n4n3)C(=O)O2)c(OC)c1` (stereo not shown) [B(117), 6-Cyclopentyl-6-[2-(2,4-dimethoxy-phenyl)-ethyl]-3-(5,7-dimethyl-[1,2,4]triazolo[1,5-a]pyrimidin-2-ylmethyl)-4-hydroxy-5,6-dihydro-pyran-2-one], the IC50 came to 111 nM.

Consider `COc1ccc(CCC2(C3CCCC3)CC(O)=C(Cc3nc4ncc(C)cn4n3)C(=O)O2)c(OC)c1` (stereo not shown) [B(118), 6-Cyclopentyl-6-[2-(2,4-dimethoxy-phenyl)-ethyl]-4-hydroxy-3-(6-methyl-[1,2,4]triazolo[1,5-a]pyrimidin-2-ylmethyl)-5,6-dihydro-pyran-2-one], for which the concentration for half-maximal inhibition (IC50) was 200 nM.

For the compound `COc1ccc(CCC2(C3CCCC3)CC(O)=C(Cc3nc4ncc(Cl)cn4n3)C(=O)O2)c(OC)c1` (stereo not shown) [B(119), 3-(6-Chloro-[1,2,4]triazolo[1,5-a]pyrimidin-2-ylmethyl)-6-cyclopentyl-6-[2-(2,4-dimethoxy-phenyl)-ethyl]-4-hydroxy-5,6-dihydro-pyran-2-one], the IC50 was determined as 70 nM.

`COc1ccc(CCC2(C3CCCC3)CC(=O)CC(=O)O2)cc1[C@@H](C)O` (stereo partly shown) [B(121), 6-Cyclopentyl-6-{2-[3-(1-hydroxy-ethyl)-4-methoxy-phenyl]-ethyl}-dihydro-pyran-2,4-dione]: the IC50 came out at 6000 nM.

On to `Cc1cc(C)n2nc(CC3=C(O)CC(CCc4ccc(C5(C)OCCO5)c(Cl)c4)(C4CCCC4)OC3=O)nc2n1` (stereo not shown) [B(122), 6-{2-[3-Chloro-4-(2-methyl-[1,3]dioxolan-2-yl)-phenyl]-ethyl}-6-cyclopentyl-3-(5,7-dimethyl-[1,2,4]triazolo[1,5-a]pyrimidin-2-ylmethyl)-4-hydroxy-5,6-dihydro-pyran-2-one], for which the IC50 was determined as 7 nM.

For `CC1(c2ccc(CCC3(C4CCCC4)CC(=O)CC(=O)O3)cc2Cl)OCCO1` (stereo not shown) [B(123), 6-{2-[3-Chloro-4-(2-methyl-[1,3]dioxolan-2-yl)-phenyl]-ethyl}-6-cyclopentyl-dihydro-pyran-2,4-dione], the IC50 turned out to be 580 nM.

For the compound `CC(=O)c1ccc(CCC2(C3CCCC3)CC(O)=C(Cc3nc4nc(C)cc(C)n4n3)C(=O)O2)cc1Cl` (stereo not shown) [B(124), 6-[2-(4-Acetyl-3-chloro-phenyl)-ethyl]-6-cyclopentyl-3-(5,7-dimethyl-[1,2,4]triazolo[1,5-a]pyrimidin-2-ylmethyl)-4-hydroxy-5,6-dihydro-pyran-2-one], the IC50 worked out at 90 nM.

Consider `Cc1cnc2nc(CC3=C(O)CC(CCc4ccc(C5(C#N)CC5)c(Cl)c4)(C4CCCC4)OC3=O)nn2c1` (stereo not shown) [B(125), 1-(2-Chloro-4-{2-[2-cyclopentyl-4-hydroxy-5-(6-methyl-[1,2,4]triazolo[1,5-a]pyrimidin-2-ylmethyl)-6-oxo-3,6-dihydro-2H-pyran-2-yl]-ethyl}-phenyl)-cyclopropanecarbonitrile], for which the IC50 was found to be 4 nM.

As for `N#CC1(c2ccc(CCC3(C4CCCC4)CC(O)=C(Cc4nc5ncc(Cl)cn5n4)C(=O)O3)cc2Cl)CC1` (stereo not shown) [B(126), 1-(2-Chloro-4-{2-[5-(6-chloro-[1,2,4]triazolo[1,5-a]pyrimidin-2-ylmethyl)-2-cyclopentyl-4-hydroxy-6-oxo-3,6-dihydro-2H-pyran-2-yl]-ethyl}-phenyl)-cyclopropanecarbonitrile], the IC50 amounted to 23 nM.

As to `CC(C)Oc1ccc(CCC2(C3CCCC3)CC(O)=C(Sc3cccc4cccnc34)C(=O)O2)cc1F` (stereo not shown) [C(01), 6-Cyclopentyl-6-[2-(3-fluoro-4-isopropoxy-phenyl)-ethyl]-4-hydroxy-3-(quinolin-8-ylsulfanyl)-5,6-dihydro-pyran-2-one], the IC50 turned out to be 337 nM.

Turning to `CC(C)Oc1ccc(CCC2(C3CCCC3)CC(O)=C(Sc3nc4cc(Cl)ccc4n3C(C)C)C(=O)O2)cc1F` (stereo not shown) [C(02)], the 50% inhibitory concentration (IC50) came to 14 nM.

For the compound `COc1ccc(CCC2(C3CCCC3)CC(O)=C(Sc3cccc4cccnc34)C(=O)O2)cc1Cl` (stereo not shown) [C(03), 6-[2-(3-Chloro-4-methoxy-phenyl)-ethyl]-6-cyclopentyl-4-hydroxy-3-(quinolin-8-ylsulfanyl)-5,6-dihydro-pyran-2-one], the IC50 was found to be 500 nM.

With `O=C1OC(CCC2=CCCCC2)(C2CCCC2)CC(O)=C1Sc1nnc(-c2ccncc2)[nH]1` (stereo not shown) [C(04), 6-(2-Cyclohex-1-enyl-ethyl)-6-cyclopentyl-4-hydroxy-3-(5-pyridin-4-yl-4H-[1,2,4]triazol-3-ylsulfanyl)-5,6-dihydro-pyran-2-one], the IC50 amounted to 1800 nM.

As for `COc1ccc(CCC2(C3CCCC3)CC(O)=C(Sc3nnc(O)n3C(C)C)C(=O)O2)cc1Cl` (stereo not shown) [C(06), 6-[2-(3-Chloro-4-methoxy-phenyl)-ethyl]-6-cyclopentyl-4-hydroxy-3-(5-hydroxy-4-isopropyl-4H-[1,2,4]triazol-3-ylsulfanyl)-5,6-dihydro-pyran-2-one], the IC50 is 250 nM.

As to `Cc1cc(C)n2nc(SC3=C(O)CC(CCc4ccc(OC(C)C)c(F)c4)(C4CCCC4)OC3=O)nc2n1` (stereo not shown) [C(07), 6-Cyclopentyl-3-(5,7-dimethyl-[1,2,4]triazolo[1,5-a]pyrimidin-2-ylsulfanyl)-6-[2-(3-fluoro-4-isopropoxy-phenyl)-ethyl]-4-hydroxy-5,6-dihydro-pyran-2-one], the IC50 turned out to be 19 nM.

For `CC(C)Oc1ccc(CCC2(C3CCCC3)CC(O)=C(Sc3ccc(O)cc3)C(=O)O2)cc1F` (stereo not shown) [C(08), 6-Cyclopentyl-6-[2-(3-fluoro-4-isopropoxy-phenyl)-ethyl]-4-hydroxy-3-(4-hydroxy-phenylsulfanyl)-5,6-dihydro-pyran-2-one], the IC50 came to 310 nM.

Take `Cc1nnc(SC2=C(O)CC(CCc3ccc(OC(C)C)c(F)c3)(C3CCCC3)OC2=O)s1` (stereo not shown) [C(09), 6-Cyclopentyl-6-[2-(3-fluoro-4-isopropoxy-phenyl)-ethyl]-4-hydroxy-3-(5-methyl-[1,3,4]thiadiazol-2-ylsulfanyl)-5,6-dihydro-pyran-2-one]: the concentration for half-maximal inhibition (IC50) was 326 nM.
